Source: the NIST ThermoML archive (doi:10.1021/acs.jced.7b00201)

Experiment: xn = mol fraction of the nth substance listed
Details: 100 kPa, Liquid; for mass density: Vibrating tube method; for viscosity: Falling or rolling sphere viscometry

OCC1CC1 [cyclopropylmethanol] + CCCCCCCCCCCC
Details	mass density [kg/m3]	viscosity [mPa·s]
318.15 K, x1 = 0.1135	736.06	–
318.15 K, x1 = 0.2127	742.4	–
318.15 K, x1 = 0.3059	749.51	–
318.15 K, x1 = 0.3804	756.13	–
318.15 K, x1 = 0.5067	769.82	–
318.15 K, x1 = 0.6019	782.78	–
318.15 K, x1 = 0.7011	799.61	–
318.15 K, x1 = 0.7921	819.33	–
318.15 K, x1 = 0.8991	850.32	–
318.15 K, x1 = 1	892.38	–
323.15 K, x1 = 0.1039	–	0.909
323.15 K, x1 = 0.1135	732.26	–
323.15 K, x1 = 0.2032	–	0.927
323.15 K, x1 = 0.2127	738.54	–
323.15 K, x1 = 0.3022	–	0.952
323.15 K, x1 = 0.3059	745.6	–
323.15 K, x1 = 0.3804	752.18	–
323.15 K, x1 = 0.3997	–	0.979
323.15 K, x1 = 0.4993	–	1.052
323.15 K, x1 = 0.5067	765.79	–
323.15 K, x1 = 0.5994	–	1.125
323.15 K, x1 = 0.6019	778.71	–
323.15 K, x1 = 0.7	–	1.22
323.15 K, x1 = 0.7011	795.48	–
323.15 K, x1 = 0.7921	815.17	–
323.15 K, x1 = 0.797	–	1.346
323.15 K, x1 = 0.8991	846.12	–
323.15 K, x1 = 0.9004	–	1.546
323.15 K, x1 = 1	888.13	1.843
328.15 K, x1 = 0.1039	–	0.849
328.15 K, x1 = 0.1135	728.45	–
328.15 K, x1 = 0.2032	–	0.864
328.15 K, x1 = 0.2127	734.66	–
328.15 K, x1 = 0.3022	–	0.884
328.15 K, x1 = 0.3059	741.65	–
328.15 K, x1 = 0.3804	748.19	–
328.15 K, x1 = 0.3997	–	0.907
328.15 K, x1 = 0.4993	–	0.969
328.15 K, x1 = 0.5067	761.73	–
328.15 K, x1 = 0.5994	–	1.031
328.15 K, x1 = 0.6019	774.6	–
328.15 K, x1 = 0.7	–	1.112
328.15 K, x1 = 0.7011	791.32	–
328.15 K, x1 = 0.7921	810.96	–
328.15 K, x1 = 0.797	–	1.221
328.15 K, x1 = 0.8991	841.86	–
328.15 K, x1 = 0.9004	–	1.391
328.15 K, x1 = 1	883.84	1.646
333.15 K, x1 = 0.1039	–	0.794
333.15 K, x1 = 0.1135	724.62	–
333.15 K, x1 = 0.2032	–	0.806
333.15 K, x1 = 0.2127	730.75	–
333.15 K, x1 = 0.3022	–	0.823
333.15 K, x1 = 0.3059	737.68	–
333.15 K, x1 = 0.3804	744.17	–
333.15 K, x1 = 0.3997	–	0.843
333.15 K, x1 = 0.4993	–	0.896
333.15 K, x1 = 0.5067	757.64	–
333.15 K, x1 = 0.5994	–	0.948
333.15 K, x1 = 0.6019	770.44	–
333.15 K, x1 = 0.7	–	1.018
333.15 K, x1 = 0.7011	787.11	–
333.15 K, x1 = 0.7921	806.7	–
333.15 K, x1 = 0.797	–	1.111
333.15 K, x1 = 0.8991	837.56	–
333.15 K, x1 = 0.9004	–	1.257
333.15 K, x1 = 1	879.49	1.476
338.15 K, x1 = 0.1039	–	0.745
338.15 K, x1 = 0.1135	720.77	–
338.15 K, x1 = 0.2032	–	0.755
338.15 K, x1 = 0.2127	726.81	–
338.15 K, x1 = 0.3022	–	0.769
338.15 K, x1 = 0.3059	733.68	–
338.15 K, x1 = 0.3804	740.12	–
338.15 K, x1 = 0.3997	–	0.785
338.15 K, x1 = 0.4993	–	0.831
338.15 K, x1 = 0.5067	753.5	–
338.15 K, x1 = 0.5994	–	0.875
338.15 K, x1 = 0.6019	766.25	–
338.15 K, x1 = 0.7	–	0.935
338.15 K, x1 = 0.7011	782.85	–
338.15 K, x1 = 0.7921	802.39	–
338.15 K, x1 = 0.797	–	1.015
338.15 K, x1 = 0.8991	833.19	–
338.15 K, x1 = 0.9004	–	1.141
338.15 K, x1 = 1	875.07	1.328
343.15 K, x1 = 0.1039	–	0.702
343.15 K, x1 = 0.1135	716.91	–
343.15 K, x1 = 0.2032	–	0.709
343.15 K, x1 = 0.2127	722.85	–
343.15 K, x1 = 0.3022	–	0.721
343.15 K, x1 = 0.3059	729.64	–
343.15 K, x1 = 0.3804	736.03	–
343.15 K, x1 = 0.3997	–	0.734
343.15 K, x1 = 0.4993	–	0.773
343.15 K, x1 = 0.5067	749.32	–
343.15 K, x1 = 0.5994	–	0.811
343.15 K, x1 = 0.6019	762	–
343.15 K, x1 = 0.7	–	0.862
343.15 K, x1 = 0.7011	778.54	–
343.15 K, x1 = 0.7921	798.03	–
343.15 K, x1 = 0.797	–	0.931
343.15 K, x1 = 0.8991	828.77	–
343.15 K, x1 = 0.9004	–	1.039
343.15 K, x1 = 1	870.62	1.201
